According to patent US20130310452A1, “ANTIFUNGAL FLAVOURING INGREDIENTS AND COMPOSITIONS” (FIRMENICH SA, priority 2011, published 2013):

Tested on: main fungi responsible for beverage and food spoilage (yeast and mould strains)
Assay: Growth inhibition of yeast and mould strains in 105 g/L sucrose solution (OD after 21 days)
Assay type: cell-based
Protocol: The antifungal activity of various flavouring ingredients was evaluated against the following yeast strains: Zygosaccharomyces rouxii (DSM70835), Pichia membranaefaciens (DSM 70369), Dekkera Bruxellensis (DSM70726), Saccharomyces cerevisiae (DSM 70869) and Candida krusei (origin: Leatherhead Food Research) and against the following moulds strains: Byssochlamys nivea, Fusarium solani, Aspergillus fumigatis, Byssochlamys fulva, Aspergillus niger, Talaromyces Harzanium, Penicillium crustosum, Penicillium digitatum, Neosartorya fischeri, Penicillium roquerforti, Fusarium oxysporum.
A 105 g/L solution of sucrose in water at pH 3±0.2 was prepared. Another sucrose solution at the same concentration at pH 5±0.2 was also prepared. The sucrose solutions were autoclaved at 121° C. for 15 minutes and the pH was re-checked to ensure it remained within the range.
Test samples were then prepared in microtiter plates. An amount of 100 μL of sucrose solution prepared above, were mixed with an inoculum of 20 μL of one fungal strain, so as to achieve a microbial level comprised between 10^2 and 10^3 cfu/mL.
The flavouring ingredient or composition was then added to the microtiter plate. Dilutions were prepared in the microtiter plate for each mixture of sucrose solution and inoculum to afford final concentrations of 2000 ppm, 1000 ppm, 500 ppm, 250 ppm and 125 ppm of the ingredient or composition to be tested. One well for each mixture of sucrose solution and inoculum was kept free of flavouring ingredient or composition, to serve as a control.
The microtiter plates were then stored in a standard 25° C. incubator under aerobic conditions.
The optical density (OD) of each sample was measured after 21 days of incubation using a Bio-Tek Synergy™ HT Multi-Mode Microplate Reader (from Labtech International, UK). The wavelength was set to 380 nm for yeast strains and to 500 nm for mould strains. All tests were done in triplicate to ensure statistical relevance of the results.
The following tables indicate the OD measurements obtained when each flavouring ingredient or composition was used to inhibit growth of yeast and mould strains involved at concentration ranging between 0 and 2000 ppm. Measurements corresponding to efficient growth inhibition are indicated by grey cells in the tables below. Results were considered as evidence of efficient growth inhibition when the OD of the growth medium was below 0.2. OD measurements below 0.2 were not considered as sufficient evidence of the antifungal activity of a given flavouring ingredient or composition at a given concentration if OD measurements obtained with a higher concentration of such flavouring ingredient or composition were above 0.2.

[1] = sucrose solution at pH 3, concentrations of 1000 ppm or less, OD below 0.2 after 21 days at 25° C., 16 strains tested
[2] = sucrose solution at pH 5, concentrations of 1000 ppm or less, OD below 0.2 after 21 days at 25° C., 16 strains tested

| SMILES | number of the main fungi responsible for beverage and food spoilage against which there is a strong antifungal effect [1] | number of the main fungi responsible for beverage and food spoilage against which there is a strong antifungal effect [2] | number of the main fungi responsible for beverage and food spoilage against which there is a strong antifungal effect (pH 3) | number of the main fungi responsible for beverage and food spoilage against which there is a strong antifungal effect (pH 5) |
| --- | --- | --- | --- | --- |
| Cc1ccc(C(C)C)cc1O [carvacrol] | 15 | 14 |  |  |
| CCCCCc1ccco1 [2-pentylfuran] | 3 | 2 |  |  |
| CC1=CCC(=C(C)C)CC1 [terpinolene] | 15 | 7 |  |  |
| O=C(O)c1ccccc1O [salicylic acid] | 12 | 14 |  |  |
| Cc1ccc(C(C)C)c(O)c1 [thymol] | 4 |  |  |  |
| CCCc1ccc(O)c(OC)c1 [dihydro eugenol] | 15 | 15 |  |  |
| CC(C)CC=C(C=O)c1ccccc1 [5-methyl-2-phenyl-2-hexenal] |  |  | 9 | 5 |
| CCCCC(C)C(=O)O (stereo not drawn) [2-methylhexanoic acid] | 15 | 16 |  |  |
| CC(C)=CCCC(C)=CCCC(C)=CCO [farnesol] | 2 |  |  |  |
| C[C@@H]1CC[C@H]2[C@H](C)C(=O)O[C@@H]2C1 [(+)-(3S,3AS,6R,7AR)-perhydro-3,6-dimethyl-benzo[B]furan-2-one] | 3 | 2 |  |  |
| COc1cc(C)cc(O)c1 [orcinyle, 3-methoxy-5-methylphenol] | 2 |  |  |  |
| CC(=O)C=CCCC(C)C [7-methyl-3-octen-2-one] | 6 | 11 |  |  |
